Reference: EP1095021B1, “QUINOLINE DERIVATIVES” (Active Biotech AB, priority 1998, dated 2000)

What was measured:
[1] = tested on: acute experimental autoimmune encephalomyelitis (aEAE); assay: Acute experimental autoimmune encephalomyelitis (aEAE) inhibition; format: in vivo, SJL/N female mice; settings: for % aEAE Inhibition: percent inhibition of clinical scores compared to saline treated controls
[2] = tested on: foetuses; assay: Teratogenic effects in the rat; format: in vivo; settings: for % malformed fetuses: day 8 to 14 of pregnancy
[3] = tested on: Beagle Pain Syndrome (BPS); assay: Beagle Pain Syndrome (BPS); format: in vivo; settings: different breeds of beagle dogs
Experimental: The disease is reflected by clinical and laboratory manifestations justifying BPS as a model for the flu-like syndrome induced by roquinimex in man.
Beagle Pain Syndrome (BPS).
The compounds were administrated intravenously to beagle dogs. The dosage was given for five consecutive days. The dogs were evaluated for clinical and laboratory signs of the pain syndrome, e.g., fever, increased erythrocyte sedimentation rate (ESR), alkaline phosphate (AP), induction of acute phase proteins and vasculitis

| Structure (SMILES) | % aEAE Inhibition ([1]; Dose 0.2 mg/kg p.o.) [%] | % aEAE Inhibition ([1]; Dose 1 mg/kg p.o.) [%] | % aEAE Inhibition ([1]; Dose 5 mg/kg p.o.) [%] | % malformed fetuses ([2]; Dose 6 mg/kg p.o.) [%] | % malformed fetuses ([2]; Dose 30 mg/kg p.o.) [%] | inhibition of acute experimental autoimmune encephalomyelitis (aEAE) ([1]; at ≥5 mg/kg, treatment control) | % malformed fetuses ([2]; Dose 10 mg/kg p.o.) [%] | teratogenic effect ([2]; rat) | Beagle Pain Syndrome (BPS) [3] |
| --- | --- | --- | --- | --- | --- | --- | --- | --- | --- |
| COc1cccc2c1c(O)c(C(=O)N(C)c1ccc(C(F)(F)F)cc1)c(=O)n2C [Compound A, N-methyl-N-(4-trifluoromethyl-phenyl)-1,2-dihydro-4-hydroxy-5-methoxy-1-methyl-2-oxo-quinoline-3-carboxamide] | 66 | 86 | 99 | 4 | 2 |  |  |  |  |
| CN(C(=O)c1c(O)c2c(Cl)cccc2n(C)c1=O)c1ccc(F)cc1F [Compound B, N-methyl-N-(2,4-difluorophenyl)-1,2-dihydro-4-hydroxy-5-chloro-1-methyl-2-oxo-quinoline-3-carboxamide] | 59 | 96 | 100 | 0 |  |  |  |  |  |
| CN(C(=O)c1c(O)c2c(Cl)cccc2n(C)c1=O)c1ccccc1 [Compound C, N-Methyl-N-phenyl-1,2-dihydro-4-hydroxy-5-chloro-1-methyl-2-oxo-quinoline-3-carboxamide] | 92 | 100 |  | 37 |  |  |  |  |  |
| CN(C(=O)c1c(O)c2ccccc2n(C)c1=O)c1ccccc1 [Compound D, N-phenyl-N-methyl-1,2-dihydro-4-hydroxy-1-methyl-2-oxo-quinoline-3-carboxamide] | 35 | 40 | 69 |  | 30 | more than 50% | 9 | teratogenic | induce the Beagle Pain Syndrome (BPS) |
